# From US7312248B2, “Control of parasites in animals by the use of novel trifluoromethanesulfonanilide oxime ether derivatives” (Schering-Plough Animal Health Corporation, priority 2004, dated 2007)
# Like-named read-outs stand apart in the source and are kept apart here.
# System: cat flea (Ctenocephalides felis)
# Test: whole plant or invertebrate
# Type: in vivo
# Details: for mortality at 1.26 µg/cm2 / mortality at 1.26 µg/cm2, 1.26 µg/cm2: Ctenocephalides felis
# Protocol: b) Ctenocephalides felis Adulticide Assay: C. felis Single Dose Screen
# Mortality of fleas was the primary endpoint in the assay. Fleas were considered dead if they didn't move or were on their sides and unable to walk or right themselves. […] The concentration chosen (1.26 μg/cm^2) was higher than that known to kill 90% of cat fleas (LC90) using the reference compound, permethrin.
# The test species was the cat flea (Ctenocephalides felis). The strain used was obtained from external suppliers as pupae and held in the laboratory under testing conditions until the adults had emerged. Fifteen (15) fleas were used in a minimum of four replicates against a single concentration level (approximately 60 fleas). The insects were selected to be in the adult life stage, aged between 3 and 7 days post emergence.
# The compounds to be tested were supplied as solids and were prepared in acetone as described below prior to testing. Samples were stored in a refrigerator (5±1° C.) unless otherwise specified.
# During the mortality testing, the temperature was maintained at 25±1° C. Humidity was maintained at 75±5%. The base (area=159 mm^2) of a 100 mL glass Erlenmeyer (conical) flask provided the treatment surface. Flasks were pretreated with Coatasil™ glass treatment to maximise bio-availability of test compounds by preventing them from binding to glass the surface. The base of the 100 mL Erlenmeyer flask was treated with 0.5 mL of test sample in acetone and gently swirled. This volume was sufficient to cover the base of the flask. Flasks were left to dry for 24 hours before flea exposure.
# Adult cat fleas were placed into a sorting chamber, which allowed fleas to jump into the Erlenmeyer flasks. Fifteen (15) adult cat fleas were collected in each flask. The top of the flasks were then covered in Parafilm™ and small holes were made to allow gas exchange. A 0.5 mL volume of acetone as a solvent control was applied to the base of an Erlenmeyer flask and the testing proceeded in the same manner described above. Cat fleas in the treatment containers were held under testing conditions for 8, 24 and/or 48 hours. Mortality was recorded at 8, 24, 8 and 24, or 24 and 48 hours. Pooled 8, 24, 8 and 24, and 24 and 48 hour mortality data were converted to percentages and are summarized by Tables 14, 14A and 14B, below.
# [1] = 24 h, read-out: Ctenocephalides felis Mortality (%) 24 h
# [2] = 48 h, read-out: Ctenocephalides felis Mortality (%) 48 h
# [3] = 8 h, read-out: C. felis Mortality (%) 8 h, 8 h, Laboratory 2 B data
# [4] = 24 h, read-out: C. felis Mortality (%) 24 h, 24 h, Laboratory 2 B data
# [5] = 48 h, read-out: C. felis Mortality (%) 48 h, 48 h, Laboratory 2 B data
# [6] = 24 h, read-out: C. felis Mortality (%) 24 h, 24 h, Laboratory 1 A data
# [7] = 8 h, read-out: Ctenocephalides felis Mortality (%) 8 h
smiles,measurement,setting,value
CC/C(=N\OCC1CCCCC1)c1cc(Cl)ccc1N(COC(=O)C(C)(C)C)S(=O)(=O)C(F)(F)F [Compound 304],mortality at 1.26 µg/cm2,[1],0%
same,mortality at 1.26 µg/cm2,[2],81%
CC/C(=N\OC(C)c1ccc(Cl)cc1Cl)c1cc(Cl)ccc1NS(=O)(=O)C(F)(F)F (centres unmarked) [Compound 259],"mortality at 1.26 µg/cm2, 1.26 µg/cm2",[3],0%
same,"mortality at 1.26 µg/cm2, 1.26 µg/cm2",[4],71%
CO/N=C(\c1ccccc1)c1cc(Cl)ccc1NS(=O)(=O)C(F)(F)F [Compound 233],C. felis Mortality (%) 24 h,"24 h, Laboratory 2 B data",15^B %
same,C. felis Mortality (%) 48 h,"48 h, Laboratory 2 B data",96%
CC/C(=N\OC(C)C1CC1)c1cc(Cl)ccc1NS(=O)(=O)C(F)(F)F (centres unmarked) [Compound 254],"mortality at 1.26 µg/cm2, 1.26 µg/cm2",[4],84%
same,"mortality at 1.26 µg/cm2, 1.26 µg/cm2",[5],100%
CO/N=C(\c1ccccc1)c1ccccc1NS(=O)(=O)C(F)(F)F [Compound 30],"mortality at 1.26 µg/cm2, 1.26 µg/cm2",[6],62%
CC/C(=N\OCC1CCCCC1)c1cc(Cl)ccc1N(C(C)=O)S(=O)(=O)C(F)(F)F [Compound 311],mortality at 1.26 µg/cm2,[7],14%
same,mortality at 1.26 µg/cm2,[1],76%
CSCO/N=C(\C)c1ccccc1NS(=O)(=O)C(F)(F)F [Compound 56],"mortality at 1.26 µg/cm2, 1.26 µg/cm2",[6],100%
C/C(=N\OC1C=CCCC1)c1ccc(C(F)(F)F)cc1NS(=O)(=O)C(F)(F)F (centres unmarked) [Compound 238],"mortality at 1.26 µg/cm2, 1.26 µg/cm2",[4],61%
same,"mortality at 1.26 µg/cm2, 1.26 µg/cm2",[5],84%
CCCO/N=C(\c1ccccc1)c1cc(Cl)ccc1NS(=O)(=O)C(F)(F)F [Compound 251],C. felis Mortality (%) 24 h,"24 h, Laboratory 2 B data",32^B %
same,"mortality at 1.26 µg/cm2, 1.26 µg/cm2",[5],100%
C/C(=N\Oc1ccc(F)cc1)c1cc(Cl)ccc1N(COC(=O)C(C)(C)C)S(=O)(=O)C(F)(F)F [Compound 305],mortality at 1.26 µg/cm2,[1],1%
same,mortality at 1.26 µg/cm2,[2],21%
CSCO/N=C(\C)c1cccc(C)c1NS(=O)(=O)C(F)(F)F [Compound 54],"mortality at 1.26 µg/cm2, 1.26 µg/cm2",[6],93%
CCO/N=C(\c1ccccc1)c1ccccc1NS(=O)(=O)C(F)(F)F [Compound 31],"mortality at 1.26 µg/cm2, 1.26 µg/cm2",[6],74%
CC/C(=N\OCCC(C)C)c1cc(Cl)ccc1NS(=O)(=O)C(F)(F)F [Compound 248],C. felis Mortality (%) 24 h,"24 h, Laboratory 2 B data",96^B %
same,C. felis Mortality (%) 48 h,"48 h, Laboratory 2 B data",100%
CCCc1conc1-c1cc(Cl)ccc1NS(=O)(=O)C(F)(F)F [Compound 295],mortality at 1.26 µg/cm2,[7],0%
same,mortality at 1.26 µg/cm2,[1],44%
CCC/C(=N\OC1CCCCC1)c1cc(Cl)ccc1NS(=O)(=O)C(F)(F)F [Compound 192],"mortality at 1.26 µg/cm2, 1.26 µg/cm2",[3],18%
same,"mortality at 1.26 µg/cm2, 1.26 µg/cm2",[4],43%
C/C(=N\OC1CCCCC1)c1ccc(C(F)(F)F)cc1NS(=O)(=O)C(F)(F)F [Compound 237],"mortality at 1.26 µg/cm2, 1.26 µg/cm2",[4],4%
same,"mortality at 1.26 µg/cm2, 1.26 µg/cm2",[5],36%
CCO/N=C(\C)c1cc(Cl)ccc1NS(=O)(=O)C(F)(F)F [Compound 36],"mortality at 1.26 µg/cm2, 1.26 µg/cm2",[6],100%
CC/C(=N\Oc1ccc(F)c(Cl)c1)c1cc(Cl)ccc1NS(=O)(=O)C(F)(F)F [Compound 146],"mortality at 1.26 µg/cm2, 1.26 µg/cm2",[6],11%
CSCO/N=C(\C)c1cc(Cl)ccc1NS(=O)(=O)C(F)(F)F [Compound 124],"mortality at 1.26 µg/cm2, 1.26 µg/cm2",[6],100%
CC/C(=N\OCc1ccc(Cl)cc1)c1cc(Cl)ccc1N(C)S(=O)(=O)C(F)(F)F [Compound 297],mortality at 1.26 µg/cm2,[1],1%
same,mortality at 1.26 µg/cm2,[2],28%
CCO/N=C(\C)c1cccc(OC)c1NS(=O)(=O)C(F)(F)F [Compound 41],"mortality at 1.26 µg/cm2, 1.26 µg/cm2",[6],45%
CCO/N=C(\C)c1ccccc1NS(=O)(=O)C(F)(F)F [Compound 29],"mortality at 1.26 µg/cm2, 1.26 µg/cm2",[6],92%
CCC/C(=N\Oc1ccc(F)cc1)c1cc(Cl)ccc1NS(=O)(=O)C(F)(F)F [Compound 168],"mortality at 1.26 µg/cm2, 1.26 µg/cm2",[6],36%
CCO/N=C(\C)c1cccc(C)c1NS(=O)(=O)C(F)(F)F [Compound 43],"mortality at 1.26 µg/cm2, 1.26 µg/cm2",[6],86%
CCO/N=C(\C)c1ccc(F)cc1NS(=O)(=O)C(F)(F)F [Compound 51],"mortality at 1.26 µg/cm2, 1.26 µg/cm2",[6],100%
C/C(=N\Oc1ccc(C)cc1)c1cc(Cl)ccc1NS(=O)(=O)C(F)(F)F [Compound 141],"mortality at 1.26 µg/cm2, 1.26 µg/cm2",[6],41%
C/C(=N\OC(C)C)c1cccc(C)c1NS(=O)(=O)C(F)(F)F [Compound 57],"mortality at 1.26 µg/cm2, 1.26 µg/cm2",[6],77%
C/C(=N\OCc1ccccn1)c1cc(Cl)ccc1NS(=O)(=O)C(F)(F)F [Compound 48],"mortality at 1.26 µg/cm2, 1.26 µg/cm2",[6],94%
CC/C(=N\Oc1ccccc1C)c1cc(Cl)ccc1NS(=O)(=O)C(F)(F)F [Compound 150],"mortality at 1.26 µg/cm2, 1.26 µg/cm2",[6],48%
C/C(=N\OCC#N)c1ccccc1NS(=O)(=O)C(F)(F)F [Compound 27],"mortality at 1.26 µg/cm2, 1.26 µg/cm2",[6],95%
"O=S(=O)(Nc1ccc(Cl)cc1/C(=N/Oc1ccc(F)cc1)C1CCCCC1)C(F)(F)F [Compound 169, N-{4-chloro-2-[(4-fluorophenoxyimino)cyclohexylmethyl]phenyl}trifluoromethanesulfonamide]","mortality at 1.26 µg/cm2, 1.26 µg/cm2",[6],9%
CCOCN(c1ccc(Cl)cc1/C(CC)=N/OCC1CCCCC1)S(=O)(=O)C(F)(F)F [Compound 301],mortality at 1.26 µg/cm2,[1],1%
same,mortality at 1.26 µg/cm2,[2],19%
C/C(=N\OCc1ccc(Cl)cc1)c1cc(Cl)ccc1N(C)S(=O)(=O)C(F)(F)F [Compound 296],mortality at 1.26 µg/cm2,[1],0%
same,mortality at 1.26 µg/cm2,[2],19%
CC/C(=N\OC)c1cc(Cl)ccc1NS(=O)(=O)C(F)(F)F [Compound 34],"mortality at 1.26 µg/cm2, 1.26 µg/cm2",[6],100%
C/C(=N\OC(C)c1ccc(Cl)cc1Cl)c1cc(Cl)ccc1NS(=O)(=O)C(F)(F)F (centres unmarked) [Compound 258],"mortality at 1.26 µg/cm2, 1.26 µg/cm2",[3],8%
same,"mortality at 1.26 µg/cm2, 1.26 µg/cm2",[4],88%
C/C(=N\Oc1ccc(F)cc1)c1cc(Cl)ccc1N(C)S(=O)(=O)C(F)(F)F [Compound 298],mortality at 1.26 µg/cm2,[1],1%
same,mortality at 1.26 µg/cm2,[2],12%
CO/N=C(\C)c1cccc(OC)c1NS(=O)(=O)C(F)(F)F [Compound 40],"mortality at 1.26 µg/cm2, 1.26 µg/cm2",[6],45%
CO/N=C(\C)c1cc(Br)ccc1NS(=O)(=O)C(F)(F)F [Compound 52],"mortality at 1.26 µg/cm2, 1.26 µg/cm2",[6],100%
CC/C(=N\OCC1CCCCC1)c1cc(Cl)ccc1N(C)S(=O)(=O)C(F)(F)F [Compound 300],mortality at 1.26 µg/cm2,[1],0%
same,mortality at 1.26 µg/cm2,[2],9%
CCC(CC)O/N=C(\C)c1ccc(C(F)(F)F)cc1NS(=O)(=O)C(F)(F)F [Compound 236],"mortality at 1.26 µg/cm2, 1.26 µg/cm2",[4],69%
same,"mortality at 1.26 µg/cm2, 1.26 µg/cm2",[5],100%
C/C(=N\OCCC(C)C)c1cc(Cl)ccc1NS(=O)(=O)C(F)(F)F [Compound 246],"mortality at 1.26 µg/cm2, 1.26 µg/cm2",[4],98%
same,"mortality at 1.26 µg/cm2, 1.26 µg/cm2",[5],100%
CC/C(=N\Oc1ccc(C)cc1)c1cc(Cl)ccc1NS(=O)(=O)C(F)(F)F [Compound 142],"mortality at 1.26 µg/cm2, 1.26 µg/cm2",[6],72%
CO/N=C(\C)c1cc(Cl)ccc1NS(=O)(=O)C(F)(F)F [Compound 35],"mortality at 1.26 µg/cm2, 1.26 µg/cm2",[6],100%
"CCC/C(=N\Oc1ccc(Cl)cc1)c1cc(Cl)ccc1NS(=O)(=O)C(F)(F)F [Compound 166, N-{4-chloro-2-[1-(4-chlorophenoxyimino)butyl]phenyl}trifluoromethanesulfonamide]","mortality at 1.26 µg/cm2, 1.26 µg/cm2",[6],17%
CO/N=C(\C)c1cccc(C)c1NS(=O)(=O)C(F)(F)F [Compound 42],"mortality at 1.26 µg/cm2, 1.26 µg/cm2",[6],72%
CCOC(=O)N(c1ccc(Cl)cc1/C(CC)=N/OCC1CCCCC1)S(=O)(=O)C(F)(F)F [Compound 313],mortality at 1.26 µg/cm2,"8 h, single concentration 1.26 μg/cm^2 on treated glass, adult fleas, Laboratory 2 B data, read-out: Ctenocephalides felis Mortality (%) 8 h",0%
same,mortality at 1.26 µg/cm2,"24 h, single concentration 1.26 μg/cm^2 on treated glass, adult fleas, Laboratory 2 B data, read-out: Ctenocephalides felis Mortality (%) 24 h",59%
CCCC(=O)OCN(c1ccc(Cl)cc1/C(C)=N/Oc1ccc(F)cc1)S(=O)(=O)C(F)(F)F [Compound 312],mortality at 1.26 µg/cm2,[7],11%
same,mortality at 1.26 µg/cm2,[1],89%
O=S(=O)(Nc1ccc(Cl)cc1/C(=N/OC1CCCCC1)c1ccccc1)C(F)(F)F [Compound 179],"mortality at 1.26 µg/cm2, 1.26 µg/cm2",[6],12%
CCCO/N=C(\c1ccccc1)c1cc(Cl)ccc1NS(=O)(=O)C(F)(F)F [Compound 252],C. felis Mortality (%) 24 h,"24 h, Laboratory 2 B data",15^B %
same,C. felis Mortality (%) 48 h,"48 h, Laboratory 2 B data",100%
"O=S(=O)(Nc1ccc(Cl)cc1/C(=N/Oc1ccc(F)cc1)c1ccccc1)C(F)(F)F [Compound 165, N-{4-chloro-2-[(4-fluorophenoxyimino)phenylmethyl]phenyl}trifluoromethanesulfonamide]","mortality at 1.26 µg/cm2, 1.26 µg/cm2",[6],21%
"CC(C)(C)/C(=N\Oc1ccc(Cl)cc1)c1cc(Cl)ccc1NS(=O)(=O)C(F)(F)F [Compound 182, N-{4-chloro-2-[1-(4-chlorophenoxyimino)2,2-dimethylpropyl]phenyl}trifluoromethanesulfonamide]","mortality at 1.26 µg/cm2, 1.26 µg/cm2",[6],28%
